Laboratory results taken from patent US20210346460A1, “TREATMENTS FOR COVID-19-RELATED SYSTEMIC SCLEROSIS, VASCULAR INSUFFICIENCY, DISTAL ISCHEMIA, AND RELATED DISEASE CONDITIONS” (priority 2020, published 2021).
Entries after “also recorded” stand apart in the source; their conditions may differ. Like-named read-outs stand apart in the source and are kept apart here.

Key:
[1] = system: pregnant uterine arteries; experiment: PGI2 release in pregnant uterine arteries
Excerpt: (§1) Accordingly, as may be observed, there is an inverse relationship depending on the vascular circuit.
(§2) With reference to FIGS. 5A and 5B, the inventor's laboratory data indicates the presence of GABA-a receptors in both systemic vessels and uterine vessel in pregnant animals. […] It may be noted that the third and last columns of FIG. 5A and the last two columns of FIG. 5B reflect competition on the GABA-a receptor between GABA and bicuculine. GABA improves PGI2 response substantially more in the absence of GABA-a receptor competition (e.g., bicuculine); and GABA with bicuculine improves PGI2 response substantially more than bicuculine alone.
(§3) With reference to FIG. 6, the inventor's laboratory data further illustrates that when the endothelium is removed from the pregnant uterine and systemic vessels, respectively, the PGI2 release trends that had been seen in the intact vessels is reversed. As may be observed, PGI2 release in pregnant uterine vessels is reduced in the presence of AII when the endothelium is removed; inversely, PGI2 release in pregnant systemic vessels is increased in the presence of AII when the endothelium is removed.
FIG. 1A illustrates an Ouabain Dose Response Curve (“ODRC”) in pregnant uterine tissue. […] This may indicate inactivity of the GABA-a/AT1 construct without Taurine. It may have been expected that substantially less PGI2 would be released without AII than with AII. […] This may indicate an active GABA-a/AT1 construct under such conditions. […] Accordingly, the inventor has surmised that non-pregnant normotensive systemic vessel behave similarly to pregnant uterine vessels when exposed to Ouabain, releasing higher levels of PGI2 in the presence of GABA and AII.
This increase in PGI2 release in the presence of higher Ouabain may explain the EO resistance noted in pregnancy.

[2] = system: intact nonpregnant systemic vessels; experiment: PGI2 release in intact nonpregnant systemic vessels (GABA dose response curves); parameters: species or system sheep; conditions: for PGI2 levels on addition of Nanomolar Ouabain: most concentrations of GABA
Excerpt: In FIGS. 2A-2C, GABA dose response curves of systemic vessels in 18 day postpartum sheep are provided. These vessels are believed to be representative of non-pregnant normotensive systemic vessels. […] Accordingly, it appears that at least one of Taurine or EO (or the like) may be needed to up-regulate the GABA-a receptor to augment PGI2 levels in the presence of nanomolar ouabain, or may at least be substantially helpful to increase PGI2 levels.
In FIG. 2C, the systemic vessels react to variable GABA in a similar manner as pregnant uterine vessels (see, e.g., FIG. 1B), but only in the presence of Ouabain.
Accordingly, the inventor has unexpectedly discovered that Ouabain exposure may modulate the PGI2 response through interaction with the GABA-a/AT1 construct.

[3] = cited from earlier work
[4] = system: pregnant systemic arteries; experiment: PGI2 release in pregnant systemic arteries
Excerpt: During experimentation between uterine vessels and systemic vessels during pregnancy, an inverse response between uterine and systemic vessels and their levels of PGI2 release was found. […] Pregnant uterine vessels, however, required GABA and angiotensin II to increase PGI2. The inventor has surmised that this mechanism is likely feto-productive in cases of hemorrhage and low blood volume during pregnancy. During these times, AII increases, dilating the uterine circuit and constricting the systemic circuit, thereby allowing the maternal blood to pass by the baby, prolonging the baby's chances of survival.
as §1, §2, §3

Cyclooxygenase (COX) = conditions: humans or rats, pharmacological blockade of COX; cited from earlier work

In the case of C[C@@H]1O[C@@H](O[C@H]2C[C@@H](O)[C@]3(CO)[C@H]4[C@H](O)C[C@]5(C)[C@@H](C6=CC(=O)OC6)CC[C@]5(O)[C@@H]4CC[C@]3(O)C2)[C@H](O)[C@H](O)[C@H]1O [Ouabain], the “PGI2 release with increase in Ouabain” value ([1]; pregnant uterine vessels, Ouabain from 10^−10 M to 10^−9 M, low taurine, GABA approx. −7 M (FIGS. 4A, 4B)) is reported as “higher PGI2 release”, the “PGI2 levels on addition of Nanomolar Ouabain” value ([2]; with AII, no Taurine (FIG. 2C)) is reported as “significant increase in PGI2 levels” and the “PGI2 levels on addition of Nanomolar Ouabain” value ([2]; without AII, no Taurine (FIG. 2B)) is reported as “significant increase in PGI2 levels”.

In the case of NCCCC(=O)O [GABA], the “PGI2 release on addition of GABA” value ([1]; pregnant uterine arteries, GABA alone, no AII (FIG. 5B col. 2)) is listed as “insignificant effect on PGI2 release”, the “PGI2 release on addition of GABA and AII” value ([1]; pregnant uterine arteries, GABA with AII (FIG. 5B col. 1)) is listed as “increased PGI2 release” and the Blood pressure ([3]; normotensive patients) is listed as “no effect”. The “PGI2 release on exposure to GABA” value ([4]; pregnant systemic vessels, absence of angiotensin II) was “increased PGI2 release” and the “PGI2 response to GABA” value ([2]; 18 day postpartum sheep systemic vessels, no EO or Taurine (FIG. 2A)) was “no PGI2 response”.

In the case of COc1ccc2c(c1)c(CC(=O)O)c(C)n2C(=O)c1ccc(Cl)cc1 [indomethacin], the Resting blood pressure (Cyclooxygenase (COX)) is given as “does not substantially affect resting blood pressure”.

With CN1CCc2cc3c(cc2[C@H]1[C@@H]1OC(=O)c2c1ccc1c2OCO1)OCO3 [bicuculine] the “PGI2 release on blocking GABA-a receptors” value ([1]; pregnant uterine arteries, even when additional GABA was added (FIG. 5B)) was “reduced PGI2 release in both circuits; also recorded: substantially reduced PGI2 release” and the “PGI2 release on blocking GABA-a receptors” value ([4]; pregnant systemic vessels (FIG. 5A)) was “reduced PGI2 release in both circuits”.

For NCCS(=O)(=O)O [Taurine, 2-amino-ethane sulfonic acid], the “Overall PGI2 release with versus without Taurine” value ([1]; pregnant uterine arteries, regardless of AII presence (FIG. 1A vs 1B)) was “overall PGI2 release appears higher without Taurine”.

With Angiotensin II [AII] the “Effect of presence or absence of AII on PGI2 release” value ([1]; pregnant uterine arteries, GABA provided, without taurine, various levels of Ouabain (FIG. 1A)) was “negligible effect on PGI2 release”, the “PGI2 release on further addition of AII” value ([1]; pregnant uterine arteries, bicuculine and GABA present (FIG. 5B col. 4)) was “even further decreased PGI2” and the “PGI2 release with versus without AII” value ([1]; pregnant uterine circuit, most levels of GABA, no Taurine, no Ouabain (FIG. 3A)) was “more PGI2 is released in the presence of AII”. The “PGI2 release in the presence of AII, endothelium removed” value ([1]; pregnant uterine vessels, endothelium removed (FIG. 6)) was “reduced”, the “Relationship between PGI2 release and AII presence” value ([4]; pregnant systemic circuit, various GABA levels, compared with uterine circuit (FIG. 3B)) was “substantially inverted” and the “PGI2 release in the presence of AII, endothelium removed” value ([4]; pregnant systemic vessels, endothelium removed (FIG. 6)) was “increased”. For the same compound, the “PGI2 formation by presence or absence of Angiotensin II” value ([2]; 18 day postpartum sheep, intact systemic vessels exposed to GABA, without Taurine or EO (FIG. 2A)) was “no significant PGI2 formation” and the “PGI2 release on addition of AII” value ([2]; in the presence of Ouabain, especially at higher concentrations of GABA (FIGS. 2B vs 2C)) was “substantially more PGI2 release”.

In the case of CCCCOC(=O)NS(=O)(=O)c1sc(CC(C)C)cc1-c1ccc(Cn2ccnc2)cc1 [C21], the Blood pressure ([3]; eHTN humans) is given as “not shown to reduce blood pressure”.

In the case of CC(=O)Oc1ccccc1C(=O)O [aspirin], the Resting blood pressure (Cyclooxygenase (COX)) is given as “does not substantially affect resting blood pressure”.
